Data published in US20090275753A1, “ORTHO-SUBSTITUTED ANILINE DERIVATIVE AND ANTIOXIDANT DRUG” (NIPPON SODA CO., LTD., priority 2005, published 2009).
pIC50: −log10 of the molar value.

How the values were obtained:
[1] = tested on: lipid peroxidation in retina homogenate; experiment: Test for evaluating tissue distribution: ex vivo inhibition of lipid peroxidation, retina; assay type: in vivo, rat; conditions: SD male rats, oral administration, one hour after administration, with feeding
Method: (§1) (Test for Evaluating Tissue Distribution)
(§2) The tissue distribution properties of the compound of the present invention were evaluated by measuring the ex vivo inhibition of lipid peroxidation.
(§3) The compound of the present invention was dissolved in DMSO (final concentration: 20%), and then dissolved or suspended in a 0.1N hydrochloric acid physiological saline solution or a 1% polyethylene hardened castor oil (NIKOL HCO-60, manufactured by Nikko Chemicals Co., Ltd.)
This solution was administered orally, at a dose of 30 mg/kg, to either a group of three SD male rats (Japan SLC, 6 weeks old) that had been feed-deprived for 24 hours, or a group of three SD male rats (Japan SLC, 6 weeks old) that had not been feed-deprived. One hour after administration and following anesthetization, the brains and eyeballs were removed. Using the method disclosed above in the section relating to the “test for evaluating in vitro inhibition of lipid peroxidation”, the brains, and the retinas separated from the eyeballs were homogenized, and the quantity of lipid peroxide within each tissue homogenate was then measured.
(§4) The inhibition rate of the compound of the present invention within each of the tissues was determined from the quantities of lipid peroxide generated in a control group (20% DMSO-0.1N hydrochloric acid physiological saline solution/1% polyethylene hardened castor oil) and in the group administered with the compound of the present invention.

[2] = Test for evaluating oral absorption: serum concentration by HPLC; assay type: in vivo, rat; conditions: SD male rats, oral 30 mg/kg, one hour after administration
Method: (Test for Evaluating Oral Absorption)
The absorption of the compound of the present invention upon oral administration was evaluated in rats.
The compound of the present invention was dissolved in DMSO (final concentration: 20%), and then dissolved or suspended in a 0.1N hydrochloric acid physiological saline solution or a 1% polyethylene hardened castor oil (NIKOL HCO-60, manufactured by Nikko Chemicals Co., Ltd.).
This solution was administered orally, at a dose of 30 mg/kg, to a group of three SD male rats (Japan SLC, 6 weeks old). One hour after administration and following anesthetization, blood was collected from the abdominal vena cava in a plastic blood collection tube containing a serum separating agent. The blood sample was left to stand for approximately one hour, and following clotting, the serum was obtained by conducting a centrifugal separation at 3,000 rpm for a period of 10 minutes. […] The quantity of the compound of the present invention that existed within this filtered solution was measured by high-performance liquid chromatography (HPLC), under the conditions shown below. […]
The filtered solution for HPLC described in the previous paragraph was measured using the following representative conditions. […]

[3] = tested on: lipid peroxidation in pig retina homogenate; experiment: Test for evaluating in vitro inhibition of lipid peroxidation (thiobarbituric acid method); assay type: biochemical; conditions: 500 μM cysteine and 5 μM FeSO4, 30 minutes at 37° C., malondialdehyde, read-out: in vitro inhibition of lipid peroxidation (50% inhibition concentration IC50)
Method: (Test for Evaluating in vitro Inhibition of Lipid Peroxidation)
Evaluation of the in vitro inhibition of lipid peroxidation of the compound of the present invention was conducted in accordance with the method disclosed by Malvy et al. (Malvy, C., et al., Biochemical and Biophysical Research Communications, 1980, vol. 95, pp. 734 to 737).
As the organ, retinas that had been separated from pig eyeballs and subsequently stored at −80° C. were used. At the time of use, a 5-fold excess of a phosphate-buffered physiological saline solution (pH 7.4) was added, and the mixture was homogenized using a microhomogenizer (PHYSCOTRON, NITI-ON).
To this pig retina homogenate were added 0.15M KCl, the compound of the present invention, 500 μM cysteine and 5 μM FeSO4, and the mixture was then incubated for 30 minutes at 37° C.
The malondialdehyde generated upon decomposition of the lipid peroxide was measured using the thiobarbituric acid method. Based on the measured values, the 50% inhibition concentration (hereafter also referred to as “IC50”) of the compound of the present invention was determined.

[4] = tested on: lipid peroxidation in brain homogenate; experiment: Test for evaluating tissue distribution: ex vivo inhibition of lipid peroxidation, brain; assay type: in vivo, rat; conditions: SD male rats, oral 30 mg/kg, one hour after administration, fasting
Method: as §1, §2, §3
This solution was administered orally, at a dose of 30 mg/kg, to either a group of three SD male rats (Japan SLC, 6 weeks old) that had been feed-deprived for 24 hours, or a group of three SD male rats (Japan SLC, 6 weeks old) that had not been feed-deprived. […] Using the method disclosed above in the section relating to the “test for evaluating in vitro inhibition of lipid peroxidation”, the brains, and the retinas separated from the eyeballs were homogenized, and the quantity of lipid peroxide within each tissue homogenate was then measured.
as §4

| SMILES | ex vivo inhibition of lipid peroxidation 50% inhibition quantity (ID50) Retina [1] | concentration at 1 h ([2]; rat, serum) [nM] | pIC50 [3] | ex vivo inhibition of lipid peroxidation inhibition rate (%) Brain [4] | serum concentration [2] |
| --- | --- | --- | --- | --- | --- |
| Cc1c(C)c2c(c(CNc3ccc(-c4ccn[nH]4)cc3)c1N)CC(C)(C)O2 [Compound 29, 5-(4-(5-amino-2,2,6,7-tetramethyldihydrobenzofuran-4-ylmethylamino)phenyl)pyrazole] | 60 (with feeding) mg/kg | 2400 |  |  |  |
| Cc1c(C)c2c(c(CCc3ccccc3)c1N)CC(C)(C)O2 [Compound 83, 2,2,6,7-tetramethyl-4-phenylethyl-5-aminodihydrobenzofuran] | 67 (with feeding) mg/kg |  | 6.59 | 96 (fasting) % |  |
| Cc1c(C)c2c(c(CN)c1N)CC(C)(C)O2 [Compound R-1, reference compound] | 72 (with feeding) mg/kg |  | 6.52 |  | Below detection limit |
